In patent US20230085307A1, “PYRIDAZINONE COMPOUND AND HERBICIDE” (NISSAN CHEMICAL CORPORATION, priority 2019, published 2023):

Tests used:
barnyard grass [1] = experiment: Test Example 3: herbicidal effect by foliage application, Wagner pot (Table 18, symbol H); format: in vivo, barnyard grass (Echinochloa crus-galli); details: for herbicidal effect on barnyard grass (H): 320 g/ha
Method in brief: (§1)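 Plants were sown in alluvial soil held under 0.1–0.5 cm standing water and grown 14 days in a greenhouse at 25–30 °C. An emulsifiable formulation, water-diluted to the set dose, was then sprayed onto the foliage, and effects were scored three weeks later using previously defined criteria.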

Chinese sprangletop = experiment: Test Example 3: herbicidal effect by foliage application, Wagner pot (Table 18, symbol D); format: in vivo, chinese sprangletop (Leptochloa chinensis); details: for herbicidal effect on Chinese sprangletop (D): 320 g/ha
Method in brief: as §1

rice flat sedge = experiment: Test Example 3: herbicidal effect by foliage application, Wagner pot (Table 18, symbol E); format: in vivo, rice flat sedge (Cyperus iria); details: for herbicidal effect on rice flat sedge (E): 320 g/ha
Method in brief: as §1

southern crabgrass = experiment: Test Example 5: herbicidal effect by foliage application, plastic box (Table 20, symbol F); format: in vivo, southern crabgrass (Digitaria ciliaris)
Method in brief: (§2)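 Plants sown in sterilized diluvial soil and grown 14 days in a greenhouse at 25° C to 30° C, then sprayed on the foliage with the compound's emulsion diluted in water to a predetermined herbicide amount. Injury to weeds and crops scored three weeks after application on a visual rating scale.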

green foxtail = experiment: Test Example 5: herbicidal effect by foliage application, plastic box (Table 20, symbol G); format: in vivo, green foxtail (Setaria viridis)
Method in brief: as §2

barnyard grass [2] = experiment: Test Example 5: herbicidal effect by foliage application, plastic box (Table 20, symbol H); format: in vivo, barnyard grass (Echinochloa crus-galli)
Method in brief: as §2

wild oat = experiment: Test Example 5: herbicidal effect by foliage application, plastic box (Table 20, symbol I); format: in vivo, wild oat (Avena fatua)
Method in brief: as §2

blackgrass = experiment: Test Example 5: herbicidal effect by foliage application, plastic box (Table 20, symbol J); format: in vivo, blackgrass (Alopecurus myosuroides)
Method in brief: as §2

Italian ryegrass = experiment: Test Example 5: herbicidal effect by foliage application, plastic box (Table 20, symbol K); format: in vivo, Italian ryegrass (Lolium multiflorum)
Method in brief: as §2

windgrass = experiment: Test Example 5: herbicidal effect by foliage application, plastic box (Table 20, symbol L); format: in vivo, windgrass (Apera spica-venti)
Method in brief: as §2

velvetleaf = experiment: Test Example 5: herbicidal effect by foliage application, plastic box (Table 20, symbol M); format: in vivo, velvetleaf (Abutilon theophrasti)
Method in brief: as §2

redroot pigweed = experiment: Test Example 5: herbicidal effect by foliage application, plastic box (Table 20, symbol N); format: in vivo, redroot pigweed (Amaranthus retroflexus)
Method in brief: as §2

lambsquarters = experiment: Test Example 5: herbicidal effect by foliage application, plastic box (Table 20, symbol O); format: in vivo, lambsquarters (Chenopodium album)
Method in brief: as §2

chickweed = experiment: Test Example 5: herbicidal effect by foliage application, plastic box (Table 20, symbol P); format: in vivo, common chickweed (Stellaria media)
Method in brief: as §2

persian speedwell = experiment: Test Example 5: herbicidal effect by foliage application, plastic box (Table 20, symbol R); format: in vivo, Persian speedwell (Veronica persica)
Method in brief: as §2

[3] = amount of applied herbicide 320 g/ha
[4] = foliage application, 320 g/ha, three weeks after application
[5] = 320 g/ha, foliage application after 14-day growth, evaluated three weeks after application
[6] = amount of applied herbicide 320 g/ha, foliage application after 14-day growth, evaluated three weeks after application

SMILES	herbicidal effect on barnyard grass (H) (barnyard grass [1])	herbicidal effect on Chinese sprangletop (D) (Chinese sprangletop)	herbicidal effect on rice flat sedge (E) (rice flat sedge)	herbicidal effect on F: southern crabgrass (evaluation grade 0-5) (southern crabgrass; [5])	herbicidal effect on G: green foxtail (evaluation grade 0-5) (green foxtail; [5])	herbicidal effect on H: barnyard grass (evaluation grade 0-5) (barnyard grass [2]; [5])	herbicidal effect on I: wild oat (evaluation grade 0-5) (wild oat; [5])	herbicidal effect on J: blackgrass (evaluation grade 0-5) (blackgrass; [5])	herbicidal effect on K: Italian ryegrass (evaluation grade 0-5) (Italian ryegrass; [5])	herbicidal effect on L: windgrass (evaluation grade 0-5) (windgrass; [5])	herbicidal effect on M: velvetleaf (evaluation grade 0-5) (velvetleaf; [5])	herbicidal effect on N: redroot pigweed (evaluation grade 0-5) (redroot pigweed; [5])	herbicidal effect on O: lambsquarters (evaluation grade 0-5) (lambsquarters; [5])	herbicidal effect on P: chickweed (evaluation grade 0-5) (chickweed; [5])	herbicidal effect on R: persian speedwell (evaluation grade 0-5) (persian speedwell; [5])	also measured
Cc1nn(C)c(=O)c(-c2c(-c3ccc(Cl)cc3)sc3cc(F)ccc23)c1O [3-015]	–	–	–	–	–	–	–	–	–	–	–	–	–	–	–	herbicidal effect on H: barnyard grass (barnyard grass [1]; [3]): 3 (Herbicidal rate of 40% or more and less than 70%); herbicidal effect on D: Chinese sprangletop (Chinese sprangletop; [3]): 3 (Herbicidal rate of 40% or more and less than 70%); herbicidal effect on E: rice flat sedge (rice flat sedge; [3]): 3 (Herbicidal rate of 40% or more and less than 70%); F: southern crabgrass, herbicidal effect grade (southern crabgrass; [4]): 0 (Herbicidal rate of 5% or less (almost no effect)); G: green foxtail, herbicidal effect grade (green foxtail; [4]): 0 (Herbicidal rate of 5% or less (almost no effect)); H: barnyard grass, herbicidal effect grade (barnyard grass [2]; [4]): 0 (Herbicidal rate of 5% or less (almost no effect)); I: wild oat, herbicidal effect grade (wild oat; [4]): 0 (Herbicidal rate of 5% or less (almost no effect)); J: blackgrass, herbicidal effect grade (blackgrass; [4]): 1 (Herbicidal rate of 5% or more and less than 20%); K: Italian ryegrass, herbicidal effect grade (Italian ryegrass; [4]): 0 (Herbicidal rate of 5% or less (almost no effect)); L: windgrass, herbicidal effect grade (windgrass; [4]): 5 (Herbicidal rate of 90% or more (almost completely withered)); M: velvetleaf, herbicidal effect grade (velvetleaf; [4]): 0 (Herbicidal rate of 5% or less (almost no effect)); N: redroot pigweed, herbicidal effect grade (redroot pigweed; [4]): 2 (Herbicidal rate of 20% or more and less than 40%); O: lambsquarters, herbicidal effect grade (lambsquarters; [4]): 0 (Herbicidal rate of 5% or less (almost no effect)); P: chickweed, herbicidal effect grade (chickweed; [4]): 4 (Herbicidal rate of 70% or more and less than 90%); R: persian speedwell, herbicidal effect grade (persian speedwell; [4]): 2 (Herbicidal rate of 20% or more and less than 40%)
Cc1nn(C)c(=O)c(-c2c(-c3ccc(OC(F)F)cc3)sc3cc(Cl)ccc23)c1O [3-147]	4 (Herbicidal rate of 70% or more and less than 90%)	2 (Herbicidal rate of 20% or more and less than 40%)	3 (Herbicidal rate of 40% or more and less than 70%)	3 (Herbicidal rate of 40% or more and less than 70%)	5 (Herbicidal rate of 90% or more (almost completely withered))	3 (Herbicidal rate of 40% or more and less than 70%)	3 (Herbicidal rate of 40% or more and less than 70%)	5 (Herbicidal rate of 90% or more (almost completely withered))	3 (Herbicidal rate of 40% or more and less than 70%)	5 (Herbicidal rate of 90% or more (almost completely withered))	4 (Herbicidal rate of 70% or more and less than 90%)	4 (Herbicidal rate of 70% or more and less than 90%)	5 (Herbicidal rate of 90% or more (almost completely withered))	5 (Herbicidal rate of 90% or more (almost completely withered))	5 (Herbicidal rate of 90% or more (almost completely withered))	–
Cc1nn(C)c(=O)c(-c2c(-c3ccc(C(F)(F)F)cc3F)sc3c(Cl)cccc23)c1O [4-037]	3 (Herbicidal rate of 40% or more and less than 70%)	1 (Herbicidal rate of 5% or more and less than 20%)	0 (Herbicidal rate of 5% or less (almost no effect))	0 (Herbicidal rate of 5% or less (almost no effect))	2 (Herbicidal rate of 20% or more and less than 40%)	0 (Herbicidal rate of 5% or less (almost no effect))	0 (Herbicidal rate of 5% or less (almost no effect))	0 (Herbicidal rate of 5% or less (almost no effect))	0 (Herbicidal rate of 5% or less (almost no effect))	5 (Herbicidal rate of 90% or more (almost completely withered))	5 (Herbicidal rate of 90% or more (almost completely withered))	5 (Herbicidal rate of 90% or more (almost completely withered))	5 (Herbicidal rate of 90% or more (almost completely withered))	4 (Herbicidal rate of 70% or more and less than 90%)	0 (Herbicidal rate of 5% or less (almost no effect))	–
Cc1ccccc1-c1sc2c(Cl)cccc2c1-c1c(O)c(C)nn(C)c1=O [4-060]	3 (Herbicidal rate of 40% or more and less than 70%)	1 (Herbicidal rate of 5% or more and less than 20%)	3 (Herbicidal rate of 40% or more and less than 70%)	0 (Herbicidal rate of 5% or less (almost no effect))	0 (Herbicidal rate of 5% or less (almost no effect))	0 (Herbicidal rate of 5% or less (almost no effect))	0 (Herbicidal rate of 5% or less (almost no effect))	0 (Herbicidal rate of 5% or less (almost no effect))	0 (Herbicidal rate of 5% or less (almost no effect))	4 (Herbicidal rate of 70% or more and less than 90%)	0 (Herbicidal rate of 5% or less (almost no effect))	2 (Herbicidal rate of 20% or more and less than 40%)	0 (Herbicidal rate of 5% or less (almost no effect))	4 (Herbicidal rate of 70% or more and less than 90%)	0 (Herbicidal rate of 5% or less (almost no effect))	–
CCCCOc1cccc(-c2sc3c(Cl)cccc3c2-c2c(OC(=O)CCC)c(C)nn(C)c2=O)c1 [4-069]	4 (Herbicidal rate of 70% or more and less than 90%)	3 (Herbicidal rate of 40% or more and less than 70%)	3 (Herbicidal rate of 40% or more and less than 70%)	0 (Herbicidal rate of 5% or less (almost no effect))	0 (Herbicidal rate of 5% or less (almost no effect))	0 (Herbicidal rate of 5% or less (almost no effect))	0 (Herbicidal rate of 5% or less (almost no effect))	0 (Herbicidal rate of 5% or less (almost no effect))	0 (Herbicidal rate of 5% or less (almost no effect))	0 (Herbicidal rate of 5% or less (almost no effect))	0 (Herbicidal rate of 5% or less (almost no effect))	0 (Herbicidal rate of 5% or less (almost no effect))	0 (Herbicidal rate of 5% or less (almost no effect))	4 (Herbicidal rate of 70% or more and less than 90%)	4 (Herbicidal rate of 70% or more and less than 90%)	–
CCCC(=O)Oc1c(C)nn(C)c(=O)c1-c1c(-c2ccccc2OCc2ccccc2)sc2c(Cl)cccc12 [4-085]	2 (Herbicidal rate of 20% or more and less than 40%)	0 (Herbicidal rate of 5% or less (almost no effect))	2 (Herbicidal rate of 20% or more and less than 40%)	–	–	–	–	–	–	–	–	–	–	–	–	Herbicidal effect by foliage application, F: southern crabgrass (southern crabgrass; [6]): 0 (Herbicidal rate of 5% or less (almost no effect)); Herbicidal effect by foliage application, G: green foxtail (green foxtail; [6]): 0 (Herbicidal rate of 5% or less (almost no effect)); Herbicidal effect by foliage application, H: barnyard grass (barnyard grass [2]; [6]): 3 (Herbicidal rate of 40% or more and less than 70%); Herbicidal effect by foliage application, I: wild oat (wild oat; [6]): 0 (Herbicidal rate of 5% or less (almost no effect)); Herbicidal effect by foliage application, J: blackgrass (blackgrass; [6]): 0 (Herbicidal rate of 5% or less (almost no effect)); Herbicidal effect by foliage application, K: Italian ryegrass (Italian ryegrass; [6]): 0 (Herbicidal rate of 5% or less (almost no effect)); Herbicidal effect by foliage application, L: windgrass (windgrass; [6]): 0 (Herbicidal rate of 5% or less (almost no effect)); Herbicidal effect by foliage application, M: velvetleaf (velvetleaf; [6]): 0 (Herbicidal rate of 5% or less (almost no effect)); Herbicidal effect by foliage application, N: redroot pigweed (redroot pigweed; [6]): 0 (Herbicidal rate of 5% or less (almost no effect)); Herbicidal effect by foliage application, O: lambsquarters (lambsquarters; [6]): 0 (Herbicidal rate of 5% or less (almost no effect)); Herbicidal effect by foliage application, P: chickweed (chickweed; [6]): 4 (Herbicidal rate of 70% or more and less than 90%); Herbicidal effect by foliage application, R: persian speedwell (persian speedwell; [6]): 2 (Herbicidal rate of 20% or more and less than 40%)
